From patent US7745571B2, “Peptide inhibitors of IASPP” (Ludwig Institute for Cancer Research, priority 2002, dated 2010) come the findings set out here.

For one test, the system named is Bax promoter. The experiment in a line: Stimulation of the Bax promoter by p53 after incubation with peptides (FIG. 4). The note with it: after incubation with peptide. Format: cell-based. As for the experimental part: FIG. 4 illustrates the stimulation of the Bax promoter by p53 after incubation with various peptides, in particular DGPEETD (SEQ ID NO: 2);
For transcriptional assay, 5×10^5 Saos-2 cells were plated 24 hr prior to transfection in 6 cm dishes. Various combinations of plasmid DNA were transfected using the following amounts. All transfection assays contain 1 μg of reporter plasmid. 50 ng of wild type human p53, 100 ng of plasmid expressing C. elegans p53, 4 μg of ASPP2, or 8 μg of ASPP1, 5 μg of human iASPP or 7.5 μg of Ce-iASPP were used as indicated. After transfection, the cells were lysed in Reporter Lysis Buffer (Promega, Wis., USA) 16-24 hr post-wash and assayed using the Luciferase Assay kit (Promega, Wis., USA). The fold activation of a particular reporter was determined by the activity of the transfected plasmid above the activity of vector alone. The fold increase of p53 transactivation activity by ASPP was obtained by the activity p53 in combination with ASPP divided by the activity of p53 alone on the promoters used in each assay.

In test [1] the test system is p53 transactivation in U2SO. The test can be described thus: p53 transactivation in tumour cell line after UV damage of DNA in presence of peptide (FIG. 5). Format: cell-based, human. The note with it: U2SO cells after UV damage of DNA. The source says: FIG. 5 illustrates the stimulation of p53 transactivation in a human tumour cell line U2SO after UV damage of DNA in the presence of peptide DGPEETD (SEQ ID NO: 2);

DGPEETD (p53 inhibitor peptide): the “stimulation of the Bax promoter by p53” value in the test on Bax promoter was “stimulation”. For the same substance, the “stimulation of p53 transactivation” value in test [1] was “stimulation”.
